Assay results published in publication PMC3253915 (Molecular Genetics and Metabolism, 2011).

Molecular target: human GALK (Homo sapiens, UniProt P51570)
Test: GALK inhibition in vitro
Format: biochemical
Conditions: unpublished data

human GALK, sequence (P51570 whole entry): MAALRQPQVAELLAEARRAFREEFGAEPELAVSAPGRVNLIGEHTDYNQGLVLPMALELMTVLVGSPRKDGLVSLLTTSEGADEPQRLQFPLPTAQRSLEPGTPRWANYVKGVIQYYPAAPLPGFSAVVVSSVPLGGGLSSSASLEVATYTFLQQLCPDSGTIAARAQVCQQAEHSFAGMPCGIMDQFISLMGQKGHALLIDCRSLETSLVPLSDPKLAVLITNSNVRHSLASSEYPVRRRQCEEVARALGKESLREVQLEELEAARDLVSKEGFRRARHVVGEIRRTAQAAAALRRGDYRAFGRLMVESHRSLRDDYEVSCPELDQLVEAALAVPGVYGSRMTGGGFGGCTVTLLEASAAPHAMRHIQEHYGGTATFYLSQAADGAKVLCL

| GALK inhibition (galactose derivative) | GALK inhibition (at low millimolar (mM) range) | SMILES |
| --- | --- | --- |
| did not result in GALK inhibition | – | O=CC[C@@H](O)[C@@H](O)[C@H](O)CO [2-deoxygalactose] |
| – | no inhibition | O=C(CO)[C@@H](O)[C@H](O)[C@H](O)CO [fructose] |
| – | no inhibition | OC[C@H]1OC(O)[C@H](O)[C@@H](O)[C@@H]1O (stereo partly drawn) [glucose] |
